Source: PubChem BioAssay AID328 (DTP/NCI, 2004)
Inconclusive results and toxic doses are left out. Starred links: 1 amine or outer side, 2 acyl side, 3 side chain; linkers in the order of their positions; H or OH if unused. Positions of bridges follow the written chain, without caps; N, C: chain ends. Non-standard residues stand in square brackets, D forms with d. Residues, ends and D or L forms follow the SMILES beside them. Chains are numbered I, II in the order given. Actinocin(1to9) = Cc1c2oc3c(C)ccc(C(=O)[*:2])c3nc-2c(C(=O)[*:1])c(N)c1=O; NMeV = CN[CH](C(=O)O)C(C)C; Sar = CNCC(=O)O

System: BDF1 mice, P388 leukemia ip, median survival T/C
Assay: NCI In Vivo Anticancer Drug Screen. Data for tumor model P388 Leukemia (intraperitoneal) in B6D2F1 (BDF1) mice
Conditions: endpoint: median survival time, higher = longer survival
Summary of the method: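 Vehicle-dosed animals serve as the reference; survival of compound-dosed, tumour-implanted mice is divided by it.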

CCC(C)C1NC(=O)C(NC(=O)c2c3nc4c(C(=O)NC5C(=O)NC(C(C)CC)C(=O)N6CCCC6C(=O)N(C)CC(=O)N(C)C(C(C)C)C(=O)OC5C)ccc(C)c4oc-3c(C)c(=O)c2N)C(C)OC(=O)C(C(C)C)N(C)C(=O)CN(C)C(=O)C2CCCN2C1=O (stereo not given) (I: TIP[Sar][NMeV] / II: TIP[Sar][NMeV]; ester I:1-I:C, II:1-II:C; linker I:N-II:N via Actinocin(1to9); configuration not given here)
T/C (dose: 0.05 mg/kg/injection, schedule: Q01DX010 (ip), vehicle: saline): 245 % of control
T/C (dose: 0.1 mg/kg/injection, schedule: Q01DX010 (ip), vehicle: saline): 300 % of control
T/C (dose: 0.2 mg/kg/injection, schedule: Q01DX001 (ip), vehicle: water): 162 % of control
T/C (dose: 0.4 mg/kg/injection, schedule: Q01DX001 (ip), vehicle: water): 157 % of control
T/C (dose: 0.8 mg/kg/injection, schedule: Q01DX001 (ip), vehicle: water): 166 % of control
T/C (dose: 1.6 mg/kg/injection, schedule: Q01DX001 (ip), vehicle: water): 86 % of control
T/C (dose: 3.1 micrograms/kg/injection, schedule: Q01DX001 (ip), vehicle: saline): 113 % of control
T/C (dose: 3.1 micrograms/kg/injection, schedule: Q01DX010 (ip), vehicle: saline): 180 % of control
T/C (dose: 3.1 micrograms/kg/injection, schedule: Q04DX003 (ip), vehicle: saline): 109 % of control
T/C (dose: 6.2 micrograms/kg/injection, schedule: Q01DX010 (ip), vehicle: saline): 175 % of control
T/C (dose: 6.3 micrograms/kg/injection, schedule: Q01DX001 (ip), vehicle: saline): 118 % of control
T/C (dose: 6.3 micrograms/kg/injection, schedule: Q04DX003 (ip), vehicle: saline): 118 % of control
T/C (dose: 12.5 micrograms/kg/injection, schedule: Q01DX001 (ip), vehicle: saline): 122 % of control
T/C (dose: 12.5 micrograms/kg/injection, schedule: Q01DX009 (ip), vehicle: water): 170 % of control
T/C (dose: 12.5 micrograms/kg/injection, schedule: Q01DX010 (ip), vehicle: saline): 185 % of control
T/C (dose: 25.0 micrograms/kg/injection, schedule: Q01DX001 (ip), vehicle: saline): 122 % of control
T/C (dose: 25.0 micrograms/kg/injection, schedule: Q01DX009 (ip), vehicle: water): 189 % of control
T/C (dose: 25.0 micrograms/kg/injection, schedule: Q01DX010 (ip), vehicle: saline): 220 % of control
T/C (dose: 25.0 micrograms/kg/injection, schedule: Q04DX003 (ip), vehicle: saline): 150 % of control
T/C (dose: 50.0 micrograms/kg/injection, schedule: Q01DX009 (ip), vehicle: water): 200 % of control
T/C (dose: 50.0 micrograms/kg/injection, schedule: Q01DX010 (ip), vehicle: saline): 215 % of control
T/C (dose: 50.0 micrograms/kg/injection, schedule: Q04DX003 (ip), vehicle: saline): 181 % of control
T/C (dose: 75.0 micrograms/kg/injection, schedule: Q04DX003 (ip), vehicle: water): 162 % of control
T/C (dose: 100.0 micrograms/kg/injection, schedule: Q01DX009 (ip), vehicle: water): 206 % of control
T/C (dose: 100.0 micrograms/kg/injection, schedule: Q01DX010 (ip), vehicle: saline): 295 % of control
T/C (dose: 100.0 micrograms/kg/injection, schedule: Q04DX003 (ip), vehicle: saline): 190 % of control
T/C (dose: 150.0 micrograms/kg/injection, schedule: Q04DX003 (ip), vehicle: water): 172 % of control
T/C (dose: 200.0 micrograms/kg/injection, schedule: Q01DX001 (ip), vehicle: saline): 177 % of control
T/C (dose: 200.0 micrograms/kg/injection, schedule: Q01DX010 (ip), vehicle: saline): 110 % of control
T/C (dose: 200.0 micrograms/kg/injection, schedule: Q04DX003 (ip), vehicle: saline): 200 % of control
T/C (dose: 300.0 micrograms/kg/injection, schedule: Q04DX003 (ip), vehicle: water): 209 % of control
T/C (dose: 400.0 micrograms/kg/injection, schedule: Q01DX001 (ip), vehicle: saline): 190 % of control
T/C (dose: 400.0 micrograms/kg/injection, schedule: Q04DX003 (ip), vehicle: saline): 231 % of control
T/C (dose: 600.0 micrograms/kg/injection, schedule: Q04DX003 (ip), vehicle: water): 224 % of control

CC1OC(OCc2cc(O)c3c(c2)C(C2OC(CO)C(O)C(O)C2O)c2cccc(O)c2C3=O)C(O)C(O)C1O (stereo not given)
T/C (dose: 50.0 mg/kg/injection, schedule: Q04DX003 (ip), vehicle: water): 105 % of control
T/C (dose: 100.0 mg/kg/injection, schedule: Q04DX003 (ip), vehicle: water): 101 % of control
T/C (dose: 200.0 mg/kg/injection, schedule: Q04DX003 (ip), vehicle: water): 90 % of control

N/N=C(\N)c1nn[nH]n1
T/C (dose: 25.0 mg/kg/injection, schedule: Q01DX009 (ip), vehicle: saline with Tween-80): 96 % of control
T/C (dose: 50.0 mg/kg/injection, schedule: Q01DX009 (ip), vehicle: saline with Tween-80): 96 % of control
T/C (dose: 100.0 mg/kg/injection, schedule: Q01DX009 (ip), vehicle: saline with Tween-80): 110 % of control
T/C (dose: 200.0 mg/kg/injection, schedule: Q01DX009 (ip), vehicle: saline with Tween-80): 86 % of control

COc1cc2c(c(OC)c1OC)-c1cc3c(cc1[C@@H](O)[C@@H]1COC(=O)[C@@H]21)OCO3
T/C (dose: 6.2 mg/kg/injection, schedule: Q01DX009 (ip), vehicle: saline): 90 % of control
T/C (dose: 9.3 mg/kg/injection, schedule: Q01DX009 (ip), vehicle: saline): 86 % of control
T/C (dose: 14.0 mg/kg/injection, schedule: Q01DX009 (ip), vehicle: saline): 109 % of control
T/C (dose: 21.0 mg/kg/injection, schedule: Q01DX009 (ip), vehicle: saline): 100 % of control
